Laboratory results as given in patent publication US5691338A, “1,2-dithiole-3 thiones for the treatment of reverse transcriptase-dependent viral infections” (priority 1995, dated 1997).
Entries after “also recorded” stand apart in the source; their conditions may differ. Like-named read-outs stand apart in the source and are kept apart here.

Experiments:
H9 cells = test: Cytotoxicity in H9 cells by trypan blue exclusion; assay type: cell-based, human; details: concentrations up to 120 μM, H9 cells
[1] = cited from earlier work
[2] = tested on: HTLV-I reverse transcriptase; details: MT-2 (HTLV-I-infected) cells, FIG. 7
Method: MT-2 is a lymphocytic cell-line that is transformed by, and is antigen positive for HTLV-I. HTLV-I can be detected in supernatants of MT-2 cultures by monitoring reverse transcriptase activity. Using the MT-2 system compounds that are inhibitors of HTLV-I reverse transciptase can be identified. MT-2 cells are washed and incubated in triplicate with various concentrations of the test compounds, positive drug controls, negative drug controls or media alone. A cell-line that is negative for HTLV-I, such as H9, is used as a negative reverse transcriptase control. After 72 hours of incubation, culture supernatants are harvested and tested for reverse transcriptase activity as described (25). Inhibition of reverse transcriptase activity is calculated by comparing the radioactive counts in the experimental compounds to the MT-2 non-drug controls. ED50's can be calculated for each compound.

[3] = tested on: glutathione levels (GSH) in H9 cells; test: Elevation of glutathione (GSH) levels in H9 cells; assay type: cell-based, human; details: for fold induction at 30 µM / fold induction at 60 µM / fold induction at 120 µM: Homo sapiens, read-out: Glutathione levels, treated to control value
Method: Five ml of medium was added to T-25 flasks and DMSO containing tests compounds were added to a final concentration of 0.1%. Control medium contained 0.1% DMSO. After the drugs were added, 5×10^6 cells in 5 ml of medium was added to each T-25 flask. The cells were grown at 37° C. in a humidified incubator supplemented with 5% CO2 until harvested (N=3 flasks/group). At the indicated times, cells were isolated by centrifugation (500×g×10 min) and were washed three times by adding 10 ml of ice-cold DPBS, mixing, and centrifuging in a refrigerated centrifuge (500×g×10 min) to isolate the cell pellets. The cells were then lysed by the addition of 400 μl of ice-cold DPBS containing 0.5% Triton X-100 and vortexing. Supernatants were then isolated by centrifuging the lysates (5000×g×20 min). Samples were kept on ice or refrigerated until the reagents for QR or GSH spectrophotometric assays were added to the aliquoted microtiter plates. QR levels were determined by aliquoting 10 μl/well of supernatant in a 96-well plate and measuring the activity by the assay described by Prochaska and Santamaria (20) except that the final NADP^+ concentration was 200 μM (21). Samples were assayed in quadruplicate, and dicoumarol inhibitable-rates (which generally represented less than 5% of the total rate) were also measured. Spectrophotometric blanks contained 10 μl of DPBS with 0.5% Triton X-100. For the GSH assay, 300 μl of sample was placed in a centricon-10microconcentrator and centrifuged (5000×g×45 min) until enough ultrafiltrate could be collected. 50 μl/well of sample in quadruplicate was placed in a 96 well "half-area" plate after which 20 μl of 1 mM Ellman's reagent dissolved in DPBS was added. The yellow color (22) developed within 5 min and was scanned with a uvmax microtiter scanner (Palo Alto, Calif.) at 405 nm. Spectrophotometric blanks contained 50 μl DPBS with 0.5% Triton X-100 and 20 μl of 1 mM Ellman's reagent in DPBS. The optical densities of the specimens were calibrated to a GSH standard curve. Protein contents were determined in 3 ml cuvettes by the Bradford method (23). The protein content in the ultrafiltrates employed for GSH determinations were negligible (<0.01 mg/ml).

HIV-1 (HTLVIIIB) [4] = test: microbe, parasite or virus in culture; details: for synergy in inhibiting HIV-1 replication: p24 release / IFA, H9 cells, high viral inhibition
Method: The effects for test compounds were assessed by means of both IFA and p24 release. In general, the following protocol was followed: H9 cells were infected with HIV-1 at 1000 50% infective doses of viruses/10^6 cells. Virus was allowed to adsorb for 1 h, after which unadsorbed virus was removed by centrifugation. The cells were resuspended and washed twice with PBS (without Ca^+2 or Mg^+2 salts) and centrifuged to collect the cell pellet (150×g×10 min). Cells were suspended in fresh medium and added at a final cell density of 500,000 cells/ml in a 96-well plate with media containing 0.1% DMSO and various concentrations of test compounds. The cells were re-fed freshly prepared media containing 0.1% DMSO±test compounds on day four (for preinduction experiments, cells were exposed to inducers on days -2, 0, and +4 days relative to infection). After seven days, cells were examined for cytoxicity by trypan blue exclusion, the degree of infection with HIV-1 by IFA, and the supernatants were assayed for p24 levels according to the manufacturer's directions. The IFA procedure can be summarized as follows: The cells were washed twice in PBS and were placed in 5 mm 12-well slides. After allowing the slides to dry and fixing the cells with acetone for 5 min, 10 μl of HIV-1 positive serum in 40 μl PBS was added to each well and allowed to incubate at 37° C. for 30 min. After incubation, the slides were washed twice with PBS and incubated at 37° C. for 30 min with 2.5 μl goat anti-human IgG-fluorescein isothiocyanate conjugate in 50 μl PBS containing 0.01% Evans Blue per well. The slides were then washed twice with PBS, dried, and mounted with 50% glycerol in PBS, and scored for the percentage of fluorescent cells by fluorescent microscopy.
Statistical significance for GSH and QR levels were established by the unpaired t test using the INSTAT statistics program (Graphpad, San Diego, Calif.). The Ki of oltipraz was determined by performing Segal transformations (26) of Dixon plots. […] Calculations were performed on spreadsheets using Lotus 1-2-3 software (Cambridge, Mass.).

HIV-1 (HTLVIIIB) [5] = test: microbe, parasite or virus in culture; assay type: cell-based
[6] = tested on: glutathione S-transferases; details: Schistosoma mansoni; cited from earlier work

## Cc1c(-c2cnccn2)ssc1=S [compound 11, 4-methyl-5-(2-pyrazinyl)-1,2-dithiole-3-thione]
H9 cells
  cytotoxicity: non-cytotoxic
[1]; in vivo
  tolerability at anti-HIV-1 doses: well tolerated
[1]; single or split doses of 20-35 mg/kg, treatment of schistosomiasis
  tolerability of high doses: can be tolerated
[2]
  effect on levels of RT activity in media: dose-dependent effect
[3]; 24 h, 30 μM
  Glutathione Levels: 62.0 ± 2.0 nmol/mg
[3]; 24 h, 60 μM
  Glutathione Levels: 83.5 ± 1.7 nmol/mg
[3]; 24 h, 120 μM
  Glutathione Levels: 109 ± 28 nmol/mg
[3]; 48 h, 30 μM
  Glutathione Levels: 52.7 ± 2.9 nmol/mg
[3]; 48 h, 60 μM
  Glutathione Levels: 68.0 ± 2.9 nmol/mg
[3]; 48 h, 120 μM
  Glutathione Levels: 79.7 ± 0.28 nmol/mg
[3]; 72 h, 30 μM
  Glutathione Levels: 40.4 ± 4.7 nmol/mg
[3]; 72 h, 60 μM
  Glutathione Levels: 47.3 ± 4.6 nmol/mg
[3]; 72 h, 120 μM
  Glutathione Levels: 75.0 ± 8.6 nmol/mg
[3]; H9, 24 h
  fold induction at 30 µM: 1.1
  fold induction at 60 µM: 1.48
  fold induction at 120 µM: 1.93
[3]; H9, 48 h
  fold induction at 30 µM: 1.52
  fold induction at 60 µM: 1.96
  fold induction at 120 µM: 2.28
[3]; H9, 72 h
  fold induction at 30 µM: 0.86
  fold induction at 60 µM: 1.01
  fold induction at 120 µM: 1.6
[3]; dose- and time-dependent, H9 cells
  elevation of GSH: able to elevate both GSH and QR levels
HIV-1 (HTLVIIIB) [4]; Human immunodeficiency virus 1, H9, read-out: IC50 as determined by p24 antigen release assays
  IC50: 14.8 ± 3.1 µM
HIV-1 (HTLVIIIB) [4]; Human immunodeficiency virus 1, H9, read-out: median dose (p24 release)
  IC50: 19.4 µM
HIV-1 (HTLVIIIB) [4]; listed as Oltipraz
  synergy in inhibiting HIV-1 replication: highly synergistic with azidothymidine (AZT)
HIV-1 (HTLVIIIB) [4]; listed as oltipraz
  synergy in inhibiting HIV-1 replication: acts synergistically with AZT
HIV-1 (HTLVIIIB) [5]; H9 cells
  inhibition of HIV-1 replication, result in words: effective
HIV-1 (HTLVIIIB) [5]; H9 cells, relative to AZT (FIG. 3)
  inhibitory potency less than that of AZT (HIV-1 replication): approximately 100 fold
HIV-1 (HTLVIIIB) [5]; Human immunodeficiency virus 1, H9, read-out: IC50 HIV-1 replication (Exp 1)
  IC50: 2 µM
HIV-1 (HTLVIIIB) [5]; Human immunodeficiency virus 1, H9, read-out: IC50 HIV-1 replication (Exp 2)
  IC50: 3 µM
HIV-1 (HTLVIIIB) [5]; Human immunodeficiency virus 1, H9, read-out: IC50 HIV-1 replication as determined by IFA
  IC50: 9.7 ± 2 µM
HIV-1 (HTLVIIIB) [5]; inducers 3-4 days prior to exposure to virus, listed as oltipraz
  effect of pre-treatment of H9 cells with inducers on anti-HIV-1 activity: did not increase the antiviral effect; also recorded: no enhancement of the anti-HIV-1 activity
[6]
  inhibition of glutathione S-transferases: irreversibly inhibits
